44 compounds from patent US8916702B2 (priority 2012, dated 2014) can be followed below.

One assay has as its system HCV pseudoparticles (genotype 1a HCV E1 and E2 envelope, H77C isolate). The experiment in a line: microbe, parasite or virus in culture. The format is cell-based. The conditions noted are these: Hepatitis C virus, Huh-7, 48 h, HCV pseudoparticle infection of Huh7 cells, luciferase 2 days after infection; average of duplicates.
Turning to `COC(=O)[C@H](CCNC(=O)C(=O)NC1CC(C)CC(C)(C)C1)NC(=O)c1ccc(Nc2nc(NC3(c4ccc(Cl)cc4)CC3)nc(OCC(F)(F)F)n2)cc1` (stereo partly shown) [Compound 1107], a half-maximal response (EC50) required 0.46 nM.

On to `O=C(NCC[C@H](NC(=O)c1ccc(Nc2nc(NC3(c4ccc(Cl)cc4)CC3)nc(OCC(F)(F)F)n2)cc1)C(=O)O)C(=O)NC1CCCC(O)C1` (stereo partly shown) [Compound 1112], for which a half-maximal response (EC50) required 1.23 nM. Take `C[C@H]1[C@H]2C[C@@H](C[C@H]1NC(=O)C(=O)NCC[C@H](NC(=O)c1ccc(Nc3nc(NC4(c5ccc(Cl)cc5)CC4)nc(OCC(F)(F)F)n3)cc1)C(=O)O)C2(C)C` [Compound 1130]: the EC50 came to 0.12 nM. In turn, `COC(=O)[C@H](CNC(=O)C(=O)NCc1ccc(F)cc1)NC(=O)c1ccc(Nc2nc(NC3(c4ccc(Cl)cc4)CC3)nc(OCC(F)(F)F)n2)cc1` [Compound 1133] returned an EC50 of 1.4 nM. On the same count and under the same terms, for `COC(=O)[C@H](CNC(=O)C(=O)NCc1c(F)cccc1F)NC(=O)c1ccc(Nc2nc(NC3(c4ccc(Cl)cc4)CC3)nc(OCC(F)(F)F)n2)cc1` [Compound 1135] the value was 1.92 nM.

The same assay, now with this note: Hepatitis C virus, Huh-7, 48 h, read-out: Activity (EC50 class), HCV pseudoparticle infection of Huh7 cells, luciferase 2 days after infection; EC50 expressed as class A/B.
With `CC1CCC(NC(=O)C(=O)NC[C@H](NC(=O)c2ccc(Nc3nc(NC4(c5ccc(Cl)cc5)CC4)nc(OCC(F)(F)F)n3)cc2)C(=O)O)CC1` (stereo partly shown) [Compound 1092], the EC50 lay within 0.01 to 10 nM. `CCC1CCC(NC(=O)C(=O)NC[C@H](NC(=O)c2ccc(Nc3nc(NC4(c5ccc(Cl)cc5)CC4)nc(OCC(F)(F)F)n3)cc2)C(=O)O)CC1` (stereo partly shown) [Compound 1093]: the EC50 was 0.01 to 10 nM.

`C[C@H]1[C@@H](NC(=O)C(=O)NC[C@H](NC(=O)c2ccc(Nc3nc(NC4(c5ccc(Cl)cc5)CC4)nc(OCC(F)(F)F)n3)cc2)C(=O)O)C[C@H]2C[C@@H]1C2(C)C` [Compound 1094]: the EC50 lay in the range of 0.01 to 10 nM. Regarding `CC(C)[C@@H]1CC[C@@H](C)C[C@H]1NC(=O)C(=O)NC[C@H](NC(=O)c1ccc(Nc2nc(NC3(c4ccc(Cl)cc4)CC3)nc(OCC(F)(F)F)n2)cc1)C(=O)O` [Compound 1095], the EC50 fell in the range of 0.01 to 10 nM. In the case of `O=C(NC[C@H](NC(=O)c1ccc(Nc2nc(NC3(c4ccc(Cl)cc4)CC3)nc(OCC(F)(F)F)n2)cc1)C(=O)O)C(=O)NC1CCCCCCC1` [Compound 1096], the EC50 lay within 0.01 to 10 nM. With `COC(=O)[C@H](CCNC(=O)C(=O)NC1CCCC(NC(=O)OC(C)(C)C)C1)NC(=O)c1ccc(Nc2nc(NC3(c4ccc(Cl)cc4)CC3)nc(OCC(F)(F)F)n2)cc1` (stereo partly shown) [Compound 1097], the EC50 was in the range of 0.01 to 10 nM.

Turning to `COC(=O)[C@H](CCNC(=O)C(=O)NC1CCCCC1O)NC(=O)c1ccc(Nc2nc(NC3(c4ccc(Cl)cc4)CC3)nc(OCC(F)(F)F)n2)cc1` (stereo partly shown) [Compound 1098], the EC50 lay in the range of 0.01 to 10 nM. Turning to `COC(=O)[C@H](CCNC(=O)C(=O)NC1CCC(F)(F)CC1)NC(=O)c1ccc(Nc2nc(NC3(c4ccc(Cl)cc4)CC3)nc(OCC(F)(F)F)n2)cc1` [Compound 1099], the EC50 is 0.01 to 10 nM.

On to `COC(=O)[C@H](CCNC(=O)C(=O)N[C@H]1C[C@H]2C3C2[C@]31C)NC(=O)c1ccc(Nc2nc(NC3(c4ccc(Cl)cc4)CC3)nc(OCC(F)(F)F)n2)cc1` (stereo partly shown) [Compound 1100], for which the EC50 was 0.01 to 10 nM.

Regarding `COC(=O)[C@H](CCNC(=O)C(=O)NC1CCN(C(=O)OC(C)(C)C)CC1)NC(=O)c1ccc(Nc2nc(NC3(c4ccc(Cl)cc4)CC3)nc(OCC(F)(F)F)n2)cc1` [Compound 1101], the EC50 was in the range of 0.01 to 10 nM. Same read-out and setting: for `COC(=O)[C@H](CCNC(=O)C(=O)N[C@@H]1C[C@@H]2CC[C@H]1C2)NC(=O)c1ccc(Nc2nc(NC3(c4ccc(Cl)cc4)CC3)nc(OCC(F)(F)F)n2)cc1` [Compound 1102] the value was 0.01 to 10 nM.

In the case of `CCC1CCC(NC(=O)C(=O)NCC[C@H](NC(=O)c2ccc(Nc3nc(NC4(c5ccc(Cl)cc5)CC4)nc(OCC(F)(F)F)n3)cc2)C(=O)OC)CC1` (stereo partly shown) [Compound 1103], the EC50 is 0.01 to 10 nM. Still for that read-out and setting: for `COC(=O)[C@H](CCNC(=O)C(=O)NC1CCCCCCC1)NC(=O)c1ccc(Nc2nc(NC3(c4ccc(Cl)cc4)CC3)nc(OCC(F)(F)F)n2)cc1` [Compound 1104] the value was 0.01 to 10 nM; for `C[C@@H]1[C@H]2C[C@H](C[C@H]1NC(=O)C(=O)NC[C@H](NC(=O)c1ccc(Nc3nc(NC4(c5ccc(Cl)cc5)CC4)nc(OCC(F)(F)F)n3)cc1)C(=O)O)C2(C)C` [Compound 1105], 0.01 to 10 nM; for `CCC(CC)NC(=O)C(=O)NCCC(NC(=O)c1ccc(Nc2nc(NC3(c4ccc(Cl)cc4)CC3)nc(OCC(F)(F)F)n2)cc1)C(=O)OC` (stereo not shown) [Compound 1106], 0.01 to 10 nM. With `COC(=O)[C@H](CCNC(=O)C(=O)NC1CC(C)CC(C)(C)C1)NC(=O)c1ccc(Nc2nc(NC3(c4ccc(Cl)cc4)CC3)nc(OCC(F)(F)F)n2)cc1` (stereo partly shown) [Compound 1107], the EC50 fell in the range of 0.01 to 10 nM. For the compound `COC(=O)[C@H](CCNC(=O)C(=O)NC1CCC(C(C)(C)C)CC1)NC(=O)c1ccc(Nc2nc(NC3(c4ccc(Cl)cc4)CC3)nc(OCC(F)(F)F)n2)cc1` (stereo partly shown) [Compound 1108], the EC50 is 0.01 to 10 nM.

Turning to `COC(=O)[C@H](CCNC(=O)C(=O)NC1CCC(C)CC1)NC(=O)c1ccc(Nc2nc(NC3(c4ccc(Cl)cc4)CC3)nc(OCC(F)(F)F)n2)cc1` (stereo partly shown) [Compound 1109], the EC50 was 0.01 to 10 nM. For `COC(=O)[C@H](CCNC(=O)C(=O)N[C@H]1C[C@@H]2C[C@@H]([C@@H]1C)C2(C)C)NC(=O)c1ccc(Nc2nc(NC3(c4ccc(Cl)cc4)CC3)nc(OCC(F)(F)F)n2)cc1` [Compound 1110], the EC50 lay within 0.01 to 10 nM. As for `CC(C)(C)OC(=O)NC1CCCC(NC(=O)C(=O)NCC[C@H](NC(=O)c2ccc(Nc3nc(NC4(c5ccc(Cl)cc5)CC4)nc(OCC(F)(F)F)n3)cc2)C(=O)O)C1` (stereo partly shown) [Compound 1111], the EC50 is 0.01 to 10 nM. On the same count and under the same terms, for `O=C(NCC[C@H](NC(=O)c1ccc(Nc2nc(NC3(c4ccc(Cl)cc4)CC3)nc(OCC(F)(F)F)n2)cc1)C(=O)O)C(=O)NC1CCCC(O)C1` (stereo partly shown) [Compound 1112] the value was 0.01 to 10 nM.

On to `O=C(NCC[C@H](NC(=O)c1ccc(Nc2nc(NC3(c4ccc(Cl)cc4)CC3)nc(OCC(F)(F)F)n2)cc1)C(=O)O)C(=O)NC1CCCCC1O` (stereo partly shown) [Compound 1113], for which the EC50 was 0.01 to 10 nM.

On to `CC1(C)CC(NC(=O)C(=O)NCC[C@H](NC(=O)c2ccc(Nc3nc(NC4(c5ccc(Cl)cc5)CC4)nc(OCC(F)(F)F)n3)cc2)C(=O)O)CC(C)(C)C1` [Compound 1115], for which the EC50 is 0.01 to 10 nM. On to `O=C1CC(NC(=O)C(=O)NCC[C@H](NC(=O)c2ccc(Nc3nc(NC4(c5ccc(Cl)cc5)CC4)nc(OCC(F)(F)F)n3)cc2)C(=O)O)CCN1` (stereo partly shown) [Compound 1116], for which the EC50 was 10 to 1000 nM. As to `C[C@]12C3C1[C@H]3C[C@@H]2NC(=O)C(=O)NCC[C@H](NC(=O)c1ccc(Nc2nc(NC3(c4ccc(Cl)cc4)CC3)nc(OCC(F)(F)F)n2)cc1)C(=O)O` (stereo partly shown) [Compound 1117], the EC50 lay within 0.01 to 10 nM. Still for that read-out and setting: next, `O=C(NCC[C@H](NC(=O)c1ccc(Nc2nc(NC3(c4ccc(Cl)cc4)CC3)nc(OCC(F)(F)F)n2)cc1)C(=O)O)C(=O)NC1CCC(O)CC1` (stereo partly shown) [Compound 1118]: 0.01 to 10 nM.

Consider `CC(C)(C)OC(=O)N1CCC(NC(=O)C(=O)NCC[C@H](NC(=O)c2ccc(Nc3nc(NC4(c5ccc(Cl)cc5)CC4)nc(OCC(F)(F)F)n3)cc2)C(=O)O)CC1` [Compound 1119], for which the EC50 fell in the range of 0.01 to 10 nM. The same measure, in the same setting: for `O=C(NCC[C@H](NC(=O)c1ccc(Nc2nc(NC3(c4ccc(Cl)cc4)CC3)nc(OCC(F)(F)F)n2)cc1)C(=O)O)C(=O)NC1C[C@H]2CC[C@@H]1C2` (stereo partly shown) [Compound 1120] the value was 0.01 to 10 nM. Consider `CCC1CCC(NC(=O)C(=O)NCC[C@H](NC(=O)c2ccc(Nc3nc(NC4(c5ccc(Cl)cc5)CC4)nc(OCC(F)(F)F)n3)cc2)C(=O)O)CC1` (stereo partly shown) [Compound 1121], for which the EC50 was 0.01 to 10 nM. For `O=C(NCC[C@H](NC(=O)c1ccc(Nc2nc(NC3(c4ccc(Cl)cc4)CC3)nc(OCC(F)(F)F)n2)cc1)C(=O)O)C(=O)NC1CCCCCC1` [Compound 1122], the EC50 lay in the range of 0.01 to 10 nM.

In the case of `C[C@H]1[C@@H](NC(=O)C(=O)NCC[C@H](NC(=O)c2ccc(Nc3nc(NC4(c5ccc(Cl)cc5)CC4)nc(OCC(F)(F)F)n3)cc2)C(=O)O)C[C@H]2C[C@@H]1C2(C)C` [Compound 1123], the EC50 is 0.01 to 10 nM.

For `CC1CCCCC1NC(=O)C(=O)NCC[C@H](NC(=O)c1ccc(Nc2nc(NC3(c4ccc(Cl)cc4)CC3)nc(OCC(F)(F)F)n2)cc1)C(=O)O` (stereo partly shown) [Compound 1124], the EC50 lay in the range of 0.01 to 10 nM. Consider `CC1CCCC(NC(=O)C(=O)NCC[C@H](NC(=O)c2ccc(Nc3nc(NC4(c5ccc(Cl)cc5)CC4)nc(OCC(F)(F)F)n3)cc2)C(=O)O)C1` (stereo partly shown) [Compound 1125], for which the EC50 was in the range of 0.01 to 10 nM. In the case of `CCC(CC)NC(=O)C(=O)NCC[C@H](NC(=O)c1ccc(Nc2nc(NC3(c4ccc(Cl)cc4)CC3)nc(OCC(F)(F)F)n2)cc1)C(=O)O` [Compound 1126], the EC50 lay within 0.01 to 10 nM. For `CC1CC(NC(=O)C(=O)NCC[C@H](NC(=O)c2ccc(Nc3nc(NC4(c5ccc(Cl)cc5)CC4)nc(OCC(F)(F)F)n3)cc2)C(=O)O)CC(C)(C)C1` (stereo partly shown) [Compound 1127], the EC50 lay in the range of 0.01 to 10 nM.

Take `CC(C)(C)C1CCC(NC(=O)C(=O)NCC[C@H](NC(=O)c2ccc(Nc3nc(NC4(c5ccc(Cl)cc5)CC4)nc(OCC(F)(F)F)n3)cc2)C(=O)O)CC1` (stereo partly shown) [Compound 1128]: the EC50 lay within 0.01 to 10 nM. The same measure, in the same setting: for `CC1CCC(NC(=O)C(=O)NCC[C@H](NC(=O)c2ccc(Nc3nc(NC4(c5ccc(Cl)cc5)CC4)nc(OCC(F)(F)F)n3)cc2)C(=O)O)CC1` (stereo partly shown) [Compound 1129] the value was 0.01 to 10 nM; for `C[C@H]1[C@H]2C[C@@H](C[C@H]1NC(=O)C(=O)NCC[C@H](NC(=O)c1ccc(Nc3nc(NC4(c5ccc(Cl)cc5)CC4)nc(OCC(F)(F)F)n3)cc1)C(=O)O)C2(C)C` [Compound 1130], 0.01 to 10 nM.

With `COC(=O)[C@H](CNC(=O)C(=O)NCc1cccc(F)c1)NC(=O)c1ccc(Nc2nc(NC3(c4ccc(Cl)cc4)CC3)nc(OCC(F)(F)F)n2)cc1` [Compound 1131], the EC50 lay within 0.01 to 10 nM. `COC(=O)[C@H](CNC(=O)C(=O)NC1CCCCC1)NC(=O)c1ccc(Nc2nc(NC3(c4ccc(Cl)cc4)CC3)nc(OCC(F)(F)F)n2)cc1` [Compound 1132]: the EC50 lay within 0.01 to 10 nM.

Consider `COC(=O)[C@H](CNC(=O)C(=O)NCc1ccc(F)cc1)NC(=O)c1ccc(Nc2nc(NC3(c4ccc(Cl)cc4)CC3)nc(OCC(F)(F)F)n2)cc1` [Compound 1133], for which the EC50 was 0.01 to 10 nM. Consider `COC(=O)[C@H](CNC(=O)C(=O)NCc1ccc(F)cc1F)NC(=O)c1ccc(Nc2nc(NC3(c4ccc(Cl)cc4)CC3)nc(OCC(F)(F)F)n2)cc1` [Compound 1134], for which the EC50 lay within 0.01 to 10 nM. The same measure, in the same setting: for `COC(=O)[C@H](CNC(=O)C(=O)NCc1c(F)cccc1F)NC(=O)c1ccc(Nc2nc(NC3(c4ccc(Cl)cc4)CC3)nc(OCC(F)(F)F)n2)cc1` [Compound 1135] the value was 0.01 to 10 nM; for `COC(=O)[C@H](CNC(=O)C(=O)NCc1ccc(F)c(F)c1)NC(=O)c1ccc(Nc2nc(NC3(c4ccc(Cl)cc4)CC3)nc(OCC(F)(F)F)n2)cc1` [Compound 1136], 0.01 to 10 nM.

The term EC50 denotes the midpoint of the concentration-response curve.
